Laboratory results as given in paper PMC8391104, “Molecular mechanism of Mad1 kinetochore targeting by phosphorylated Bub1” (EMBO Reports, 2021).
Where two headings read alike, the source gives them in different places. One block for each compound: values may come before it. Where a SMILES comes first, the peptide text is derived from it. [ ]: non-standard residue; d: D form. pT = C[C@@H](OP(=O)(O)O)[C@H](N)C(=O)O

Columns and labels:
Peptide solubility = format: physicochemical; conditions: 20 mM Hepes, pH 7.5, 100 mM NaCl, 1 mM TCEP, without DMSO
Protocol: Our ITC and sedimentation equilibrium experiments to measure the stoichiometry of the Mad1^CTD‐Bub1^CD1 interaction were performed with concentrations of Mad1 at 100 µM or lower, and titrating Bub1 until a twofold‐fourfold molar excess was obtained. However, our ^31P NMR experiments were conducted with around 0.25 to 0.5 mM of each, and still only one binding event was detected. […] DMSO interfered with ITC enthalpy changes and the NMR signal from DMSO obscured the protein peaks. In contrast, our Mad1^CTD‐Bub1^CD1 crystal structure was obtained through co‐crystallization of Mad1^CTD at a final concentration of 0.35 mM and Bub1^CD1 at 2.5 mM in 5% DMSO. The use of millimolar concentrations of peptide, and the presence of DMSO and isopropanol, required for Mad1^CTD‐Bub1^CD1 crystallization, may explain the association of a second peptide in the crystallized complex. […]
which are affected are already mapped out in Fig 5B, and this can be tracked across Bub1CD1 […]
We thank the reviewer for their positive and constructive comments.
1) On page 2, the first line of the third paragraph, Msp1 should be Mps1.
Response: Thank you, we have corrected this error.
2) Please provide a figure to show the omit map (2Fo−Fc map) for the BUB1 CD1 peptide.
Response: We have created a 2Fo-Fc omit map and included it in Fig EV2D and updated the figure legend accordingly. […]
2) p. 5, near bottom. The authors state that the singly phosphorylated Bub1 peptide (on Thr-461) is less soluble than the double phosphorylated peptide (also phosphorylated on Ser-459), which may explain previous reports that P-Ser-459 contributes to binding Mad1-CTD. It would be helpful if the authors could quantify this reduced solubility.
Response: We realise that our comment on the reduced solubility of the singly phosphorylated pT461 peptide is likely confusing, so we have removed this comment.
In terms of quantifying the reduced solubility, we observed an approximately 2-fold reduction of the solubility of the singly phosphorylated peptide. […]

Mad1^CTD = conditions: ref Ji et al, 2017b, Zhang et al, cited from earlier work
Text: Formation of the Bub1‐Mad1 complex at kinetochores is dependent on phosphorylation of Bub1, a targeting mechanism conserved from yeast to humans (Heinrich et al, [2014]; London & Biggins, [2014a]; Silió et al, [2015]). In S. cerevisiae, phosphorylation of Bub1 at Thr453 and Thr455 by Mps1 promotes an interaction with Mad1^CTD, with pThr455 alone being sufficient for this interaction (London & Biggins, [2014a]; Ji et al, [2017b]). […] This is explained by our structure because a bulky phosphate at Thr464 would clash with the Bub1^CD1 binding interface of Mad1. Therefore, phosphorylation at Thr464 could provide a means to negatively regulate the Bub1‐Mad1 interaction in response to checkpoint signals ... || (+ 1 further places)

[1] = target: T1, human Mad1^CTD (WT) homodimer (Homo sapiens, UniProt Q9Y6D9); assay: ITC of Bub1^CD1 peptides binding to wild-type Mad1^CTD; conditions: N‐terminal tryptophan peptide
T1 construct: human Mad1^CTD homodimer (residues 597–718); double Strep His6-tag with TEV site (N, cleaved yes); made in house; host or cells: E. coli Rosetta 2 (DE3)
T1 sequence (Q9Y6D9 597-718): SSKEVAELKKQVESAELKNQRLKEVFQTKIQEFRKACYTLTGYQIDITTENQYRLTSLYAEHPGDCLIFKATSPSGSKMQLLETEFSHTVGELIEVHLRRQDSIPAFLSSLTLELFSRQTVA
Text: The coding region of Mad1^597–719 was cloned by USER® (NEB) into a modified pRSFDuet‐1 vector (71341‐3, Sigma‐Aldrich) with an N‐terminal double Strep His6‐tag, followed by a tobacco etch virus (TEV) protease cleavage site (Demple & Linn, [1982]; Bitinaite et al, [1992]). Mad1 mutants were generated using the QuikChange™ Lightning Site‐Directed Mutagenesis Kit (Agilent), developed by Stratagene Inc. (La Jolla, CA) (Nøhr & Kristiansen, [2003]). Mad1 constructs were transformed into Rosetta™ 2 (DE3) Singles™ Competent Cells (71400, Novagen) for expression. Expression was induced with 0.5 mM IPTG and grown overnight at 18°C. Cells were lysed in 25 mM HEPES pH 8.1, 250 mM NaCl, 2 mM DTT, 5% glycerol, 2 mM EDTA supplemented with lysozyme, and Complete™ EDTA‐free protease inhibitors (Roche). Proteins were purified over a Strep‐Tactin Superflow Plus column (QIAGEN) and cleaved with TEV protease overnight at 4°C. The cleaved Mad1^CTD was then diluted to 50 mM NaCl, purified over an anion exchange (Resource Q, GE Healthcare) column, followed by size exclusion chromatography using a Superdex 75 Increase column (GE Healthcare). Mad1^CTD was concentrated to 35 mg/ml in a buffer of 20 mM HEPES pH 7.5, 100 mM NaCl and 1 mM TCEP.
Bub1^CD1 peptides were ordered from Designer Bioscience UK, at 95% purity. The full peptide sequence used in this study was (W)KVQP{pS}P{pT}VHTKEALGFIMNMFQAPTS. (W) = peptide with an additional N‐terminal tryptophan was used to confirm peptide concentration in stoichiometry studies.
Isothermal titration calorimetry (ITC) was performed using an Auto‐iTC200 instrument (Malvern Instruments, Malvern, UK) at 20°C. Mad1^CTD and Bub1^CD1 peptide mutants were dialysed into 20 mM HEPES pH 7.5, 100 mM NaCl, 1 mM TCEP. For each titration between 30–100 µM of Mad1 was pipetted into the calorimeter cell. The Bub1^CD1 peptides at 0.3–1.5 mM were titrated into the cell consisting of one 0.5 µl injection followed by 19 injections of 2 µl each. The changes in the heat released were integrated over the entire titration and fitted to a single‐site binding model using the MicroCal PEAQ‐ITC Analysis Software 1.0.0.1258 (Malvern Instruments). Titrations were performed in triplicate. Calculations for stoichiometry were based on the molar concentrations of dimeric Mad1^CTD.

Mad1CTD = assay: Mad1-Cdc20 interaction; format: binding
Text: Response: Thank you for pointing out this paper. We have now mentioned this observation in the text: bottom of page 10.
2-1) Have the authors analyzed if Mad1 can bind directly to Cdc20 and is this influenced by Bub1 CD1 as proposed in Ji et al 2017? This would have important implications for understanding SAC signaling also in light of the two recent Science papers on this topic.
Response: We have not carefully analysed the Mad1-Cdc20 interaction. We have replicated […]
blotting) to Mad1CTD (data not shown).
2-2) The authors are focused on the model that Bub1 positions Cdc20 close to Mad1 but this model is not consistently supported by the literature (see for example: Di Fiore Dev Cell 2016 where a Cdc20 mutant unable to bind ABBA motifs still loads Mad2 and Zhang et al 2019, PMID: 30782962 where Bub1 without an ABBA motif still supports a robust […]
Response: Thank you for pointing this out. We agree that we predominately focused on the model that the Bub1 ABBA/KEN motifs position Cdc20 close to Mad1, and that we should have stated more clearly that this model is still debated.
Two changes to the text were made:
1) In the Introduction (page 2) where we had previously already discussed how this model is debated, we added the (Zhang et al, 2019) reference. […]
4) In figure 5A could the authors indicates the peaks they want the readers to focus on that are also discussed in the text. […]

- reduction of solubility versus doubly phosphorylated peptide (Peptide solubility): approximately 2 fold
- solubility (Peptide solubility): about 0.7 mM
Compound: CC[C@H](C)[C@H](NC(=O)[C@H](Cc1ccccc1)NC(=O)CNC(=O)[C@H](CC(C)C)NC(=O)[C@H](C)NC(=O)[C@H](CCC(=O)O)NC(=O)[C@H](CCCCN)NC(=O)[C@@H](NC(=O)[C@H](Cc1c[nH]cn1)NC(=O)[C@@H](NC(=O)[C@@H](NC(=O)[C@@H]1CCCN1C(=O)[C@H](CO)NC(=O)[C@@H]1CCCN1C(=O)[C@H](CCC(N)=O)NC(=O)[C@@H](NC(=O)[C@@H](N)CCCCN)C(C)C)[C@@H](C)OP(=O)(O)O)C(C)C)[C@@H](C)O)C(=O)N[C@@H](CCSC)C(=O)N[C@@H](CC(N)=O)C(=O)N[C@@H](CCSC)C(=O)N[C@@H](Cc1ccccc1)C(=O)N[C@@H](CCC(N)=O)C(=O)N[C@@H](C)C(=O)N1CCC[C@H]1C(=O)N[C@H](C(=O)N[C@@H](CO)C(=O)O)[C@@H](C)O [SpT* CD1] (H-KVQPSP[pT]VHTKEALGFIMNMFQAPTS-OH; N-terminus and C-terminus assumed)
- Mad1 binding reported previously, in words (Mad1^CTD; listed as pThr461): sufficient to promote a strong Bub1‐Mad1 interaction
- Mad1 binding reported previously, in words (Mad1^CTD; listed as singly phosphorylated pThr461 peptide): significant reduction in binding

- KD and stoichiometry compared with peptide lacking N-terminal Trp [1]: The same KD and stoichiometry
Compound: (W)KVQP{pS}P{pT}VHTKEALGFIMNMFQAPTS [peptide with an additional N‐terminal tryptophan was used to confirm peptide concentration in stoichiometry studies]

Compound: phosphorylated Bub1-Bub3: phosphorylated Bub1-Bub3 complex
- effect on the Mad1-Cdc20 interaction, in words (Mad1CTD): does not detectably enhance the Mad1-Cdc20 interaction
